Patent US20250152591A1, “TREATMENT OF HEMATOLOGICAL MALIGNANCIES WITH MENIN INHIBITORS AND P-GLYCOPROTEIN INHIBITORS” (Kura Oncology, Inc., priority 2022, published 2025)
pIC50: −log10 of the molar value. Read-outs that look alike come from different tables or passages of the source.

Legend:
P-gp [1] = target: T1, P-gp (Homo sapiens, UniProt P08183); assay: in vitro; settings: MDCK-MDR1, pH 7.4
Procedure: MDCK epithelial cells stably transfected with the human MDR1 gene (the gene encoding for the efflux protein P-gp) were seeded on a Multiscreen™ plate (Millipore, MA, USA) and formed a confluent monolayer over 4 days prior to the experiment. To verify the MDR1-MDCK cell monolayers were properly formed, aliquots of the cell buffers were analyzed by fluorescence to determine the transport of the impermeable dye Lucifer Yellow. Any deviations from control values are reported.
MDR1-MDCK cells were incubated with these buffers for 2 h, and the receiver side buffer was removed for analysis by LC-MS/MS.
The rate of passage of the test compounds through this cell monolayer barrier from apical to basolateral (A→B) in this bi-directional transport assay was used to determine the apparent permeability coefficient (Papp). Receiver, donor, and dosing solution concentrations were quantified using a calibration curve prepared in transport buffer solution (pH 7.4). Papp is calculated as
where dQ/dt is rate of permeation, C0 is initial concentration of test agent, and A is the area of monolayer (0.11 cm^2). The basolateral to apical (B→A) to apical to basolateral (A→B) apparent permeability coefficient ratio
When RE>2 for a tested compound, the tested compound is a potential substrate for P-gp.
Rantinidine, talinolol, warfarin, and loperamide (±2 μM elacridar) were tested as reference compounds and each was tested at a concentration of 10 μM.

MV4;11-PGP cell line = assay: CellTiter-Glo cell viability assay, MV4;11-PGP; format: cell-based; parameters: unit of the concentration uncertain; settings: second set of experiments
Procedure: (§1) The influence of efflux pumps on the antitumor activity of the test compounds at steady state (more clinically relevant) were evaluated using P-gp-transfected AML cells (MV4;11 cells) in 6-day viability assays.
(§2) A P-gp-expressing KMT2A(MLL)-rearranged cell line model was developed by lentiviral transduction of the MV4;11 parental cell line and then selection for either Luciferase ORF (MV4;11-Control) or P-gp ORF (MV4;11-PGP).
(§3) […] Cell viability was measured by CellTiter-Glo® Luminescent Cell Viability Assay (CTG assay, Promega Corp.) and % Viability was quantified by normalizing to the luminescence values of DMSO-only treated cells. The dose-response curves and IC50's were calculated using GraphPad Prism 9.4.1.
(§4) The measured luminescence in the live cells of the MV4;11-Control and MV4;11-PGP cells that were treated with Compound I only (+DMSO), Compound I+posaconazole […], and valspodar (1 mM) are shown in FIGS. 5A and 5B.
(§5) In a second set of experiments, MV4;11-Control and MV4;11-PGP cell lines were treated as described above with five menin inhibitors, including Compound I, SNDX-5613, Compound A, Compound B, and Compound C, at concentrations ranging from 0 to 1000 nM. All tested compounds dropped in potency due to the P-gp expression as shown in FIGS. 6A-6J and in Tables 5 and 6 (indicated by increased IC50 values between “MV4;11-Control (Compound+DMSO)” and “MV4;11-PGP (Compound+DMSO)” entries).

MV4;11-Control cell line = assay: CellTiter-Glo cell viability assay, MV4;11-Control; format: cell-based; parameters: unit of the concentration uncertain; settings: second set of experiments
Procedure: as §1, §2, §3, §4, §5

P-gp [2] = target: T1, P-gp; assay: P-gp substrate assessment using MDR1-MDCK monolayers (Example 1, +/- valspodar); format: in vitro ADME; parameters: expressed in transfected cells; host or cells: MDR1-MDCK cells; settings: 12-well plates, QC of MDR1-MDCK cell batch
Procedure: MDR1-MDCK cell monolayers were grown to confluence on collagen-coated, microporous membranes in 12-well assay plates. Details of the plates and their certification are shown below. The permeability assay buffer was Hanks' balanced salt solution (HBSS) containing 10 mM HEPES and 15 mM glucose at a pH of 7.4. The buffer in the receiver chamber also contained 1% bovine serum albumin. The dosing solution concentration was 5 μM of test article in the assay buffer+/−1 μM valspodar. Cells were first pre-incubated for 30 min with HBSS containing+/−1 μM valspodar. Cell monolayers were dosed on the apical side (A-to-B) or basolateral side (B-to-A) and incubated at 37° C. with 5% CO2 in a humidified incubator. Samples were taken from the donor and receiver chambers at 120 min. Each determination was performed in duplicate. The flux of lucifer yellow was also measured post-experimentally for each monolayer to ensure no damage was inflicted to the cell monolayers during the flux period. All samples were assayed by LC-MS/MS using electrospray ionization. Liquid chromatography conditions are summarized as follows: Column: Thermo BDS Hypersil C18 30×2.1 mm, […], with guard column; M.P. Buffer: 25 mM ammonium formate buffer, pH 3.5; Aqueous Reservoir (A): 90% water, 10% buffer; Organic Reservoir (B): 90% acetonitrile, 10% buffer; Flow Rate: 350 μL/minute; Total run time: 3.5 min; Autosampler: 10 μL injection volume; Autosampler wash: water/methanol/2-propanol: 1/1/1; with 0.2% formic acid.
The apparent permeability (Papp) and percent recovery were calculated as follows: […]
where, • dCr/dt is the slope of the cumulative concentration in the receiver compartment versus time in μM s^−1; • Vr is the volume of the receiver compartment in cm^3; • Vd is the volume of the donor compartment in cm^3; • A is the area of the insert (1.13 cm^2 for 12-well); • CA is the average of the nominal dosing concentration and the measured 120 minute donor concentration in μM; • CN is the nominal concentration of the dosing solution in μM; • Cr^final is the cumulative receiver concentration in μM at the end of the incubation period; • Cd^final is the concentration of the donor in μM at the end of the incubation period.
Efflux ratio (ER) is defined as Papp (B-to-A)/Papp (A-to-B).
• ER≥2.0 without valspodar, and reduced by ≥50% with valspodar: Positive • ER≥2.0 without valspodar, and reduced by <50% with valspodar: Negative • ER<2.0 without and with valspodar: Negative

[3] = 144 h, 0 to 1000 nM, Table 5, read-out: IC50 MV4;11-PGP (Compound + DMSO)
[4] = 144 h, 0 to 1000 nM, Table 6, read-out: IC50 MV4;11-PGP (Compound + DMSO)
[5] = posaconazole (1.5 (unit uncertain)), Table 5, read-out: IC50 MV4;11-PGP (Compound + posaconazole)
[6] = valspodar (1 (unit uncertain)), Table 6, read-out: IC50 MV4;11-PGP (Compound + valspodar)
[7] = 144 h, 0 to 1000 nM, Table 5, read-out: IC50 MV4;11-Control (Compound + DMSO)
[8] = 144 h, 0 to 1000 nM, Table 6, read-out: IC50 MV4;11-Control (Compound + DMSO)
[9] = posaconazole (1.5 (unit uncertain)), Table 5, read-out: IC50 MV4;11-Control (Compound + posaconazole)
[10] = valspodar (1 (unit uncertain)), Table 6, read-out: IC50 MV4;11-Control (Compound + valspodar)

T1 sequence (P08183 whole entry): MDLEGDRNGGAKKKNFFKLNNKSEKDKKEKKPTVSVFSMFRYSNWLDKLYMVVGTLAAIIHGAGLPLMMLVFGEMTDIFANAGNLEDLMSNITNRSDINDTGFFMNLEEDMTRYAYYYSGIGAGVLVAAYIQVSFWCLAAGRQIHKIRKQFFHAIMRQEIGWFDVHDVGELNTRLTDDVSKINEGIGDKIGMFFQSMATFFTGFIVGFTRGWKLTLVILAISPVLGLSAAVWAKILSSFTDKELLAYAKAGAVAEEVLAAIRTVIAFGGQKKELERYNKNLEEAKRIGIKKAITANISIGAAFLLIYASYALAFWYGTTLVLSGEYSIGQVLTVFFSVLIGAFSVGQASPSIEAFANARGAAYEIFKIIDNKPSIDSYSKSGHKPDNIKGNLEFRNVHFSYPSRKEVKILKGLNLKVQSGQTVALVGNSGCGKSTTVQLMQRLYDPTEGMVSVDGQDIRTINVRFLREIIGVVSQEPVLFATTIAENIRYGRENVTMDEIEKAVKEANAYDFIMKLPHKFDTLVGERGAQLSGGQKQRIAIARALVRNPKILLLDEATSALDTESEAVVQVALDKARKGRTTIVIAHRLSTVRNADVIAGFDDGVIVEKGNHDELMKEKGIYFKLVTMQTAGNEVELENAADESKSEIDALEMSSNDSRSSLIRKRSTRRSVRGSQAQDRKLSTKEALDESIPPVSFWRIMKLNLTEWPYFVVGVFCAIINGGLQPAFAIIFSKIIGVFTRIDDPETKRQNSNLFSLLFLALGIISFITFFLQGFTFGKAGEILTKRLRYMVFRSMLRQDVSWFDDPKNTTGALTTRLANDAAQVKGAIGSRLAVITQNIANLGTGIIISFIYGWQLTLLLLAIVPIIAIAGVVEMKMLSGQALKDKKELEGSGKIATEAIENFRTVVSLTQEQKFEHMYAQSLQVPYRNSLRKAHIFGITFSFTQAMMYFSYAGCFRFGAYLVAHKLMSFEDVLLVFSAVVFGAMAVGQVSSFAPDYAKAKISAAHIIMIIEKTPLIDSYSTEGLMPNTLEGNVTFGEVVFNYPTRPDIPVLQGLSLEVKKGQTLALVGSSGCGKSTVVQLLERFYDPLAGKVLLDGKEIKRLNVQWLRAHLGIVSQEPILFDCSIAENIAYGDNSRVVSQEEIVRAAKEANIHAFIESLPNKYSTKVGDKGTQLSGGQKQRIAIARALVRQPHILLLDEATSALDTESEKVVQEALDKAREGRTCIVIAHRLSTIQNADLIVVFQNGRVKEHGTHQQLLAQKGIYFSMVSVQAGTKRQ

Row | Structure (SMILES) | Papp A→B at 2 h (P-gp [1]) [×10⁻⁶ cm/s] | Papp B→A at 2 h (P-gp [1]) [×10⁻⁶ cm/s] | pIC50 (MV4;11-PGP cell line; [3]) | pIC50 (MV4;11-PGP cell line; [4]) | pIC50 (MV4;11-Control cell line; [7]) | pIC50 (MV4;11-Control cell line; [8]) | pIC50 (MV4;11-Control cell line; [9]) | pIC50 (MV4;11-Control cell line; [10]) | pIC50 (MV4;11-PGP cell line; [5]) | pIC50 (MV4;11-PGP cell line; [6]) | also measured
1 | CCN(C(=O)c1cc(F)ccc1Oc1nncnc1N1CCC2(C1)CN([C@H](CCCN(C)CCOC)C(C)C)C2)C(C)C [Compound B] |  |  | 6.97 | 6.94 | 8.48 | 8.39 | 8.60 | 8.52 | 8.23 | 8.50 | 
2 | CN(C)C(=O)C(CCN1CCC(O)(c2ccc(Cl)cc2)CC1)(c1ccccc1)c1ccccc1 [Loperamide] | 0.792 | 61.2 |  |  |  |  |  |  |  |  | 
3 | COc1cc(-c2ccc(CN[C@H]3C[C@@H](O)[C@@H](N(C)c4ncnc5sc(CC(F)(F)F)cc45)C3)cc2)nnc1OC [Compound A] |  |  | 7.66 | 7.67 | 8.64 | 8.68 | 8.70 | 8.68 | 8.31 | 8.62 | 
4 | C[C@H]1O[C@@H](O[C@H]2[C@@H](O)C[C@H](O[C@H]3[C@@H](O)C[C@H](O[C@H]4CC[C@@]5(C)[C@H](CC[C@@H]6[C@@H]5C[C@@H](O)[C@]5(C)[C@@H](C7=CC(=O)OC7)CC[C@]65O)C4)O[C@@H]3C)O[C@@H]2C)C[C@H](O)[C@@H]1O [Digoxin] |  |  |  |  |  |  |  |  |  |  | B-to-A Papp (cell batch quality control) (P-gp [2]): 17.6 10^−6 cm/s; efflux ratio (cell batch quality control) (P-gp [2]): 243; Papp A→B (P-gp [2]; dog, read-out: A-to-B Papp (cell batch quality control)): 0.07 ×10⁻⁶ cm/s
5 | CC(C)NCC(O)COc1cccc2ccccc12 (stereo not shown) [Propanolol] |  |  |  |  |  |  |  |  |  |  | Papp (P-gp [2]; dog, read-out: Papp (cell batch quality control)): 15 ×10⁻⁶ cm/s

More lines, main results first:

Row | Papp A→B at 2 h (P-gp [1]) [×10⁻⁶ cm/s] | Papp B→A at 2 h (P-gp [1]) [×10⁻⁶ cm/s] | pIC50 (MV4;11-PGP cell line; [3]) | pIC50 (MV4;11-PGP cell line; [4]) | pIC50 (MV4;11-Control cell line; [7]) | pIC50 (MV4;11-Control cell line; [8]) | pIC50 (MV4;11-Control cell line; [9]) | pIC50 (MV4;11-Control cell line; [10]) | Structure (SMILES) | pIC50 (MV4;11-PGP cell line; [5]) | pIC50 (MV4;11-PGP cell line; [6]) | also measured
6 | 0.0514 | 4.35 |  |  |  |  |  |  | CNC(=C[N+](=O)[O-])NCCSCc1ccc(CN(C)C)o1 [Ranitidine] |  |  | 
7 | 21.5 | 32.3 |  |  |  |  |  |  | CC(=O)CC(c1ccccc1)c1c(O)c2ccccc2oc1=O (stereo not shown) [Warfarin] |  |  | 
8 |  |  | 6.15 | 6.12 | 6.63 | 6.57 | 6.65 | 6.64 | C=CC(=O)N[C@@H]1CCCN(Cc2ccnc(C(=O)Nc3ccc(-c4cc5c(N6CCOCC6)ncnc5[nH]4)cc3)c2)C1 [Compound C] | 6.46 | 6.64 | 
